Assay results: BindingDB's records for doi:10.1016/s1388-1981(99)00164-x (Merck Frosst Centre For Therapeutic Research, 2000)

What was measured:
[1] = target: T1, Prostaglandin D2 receptor (Homo sapiens, UniProt Q13258)
T1 sequence (Q13258 whole entry): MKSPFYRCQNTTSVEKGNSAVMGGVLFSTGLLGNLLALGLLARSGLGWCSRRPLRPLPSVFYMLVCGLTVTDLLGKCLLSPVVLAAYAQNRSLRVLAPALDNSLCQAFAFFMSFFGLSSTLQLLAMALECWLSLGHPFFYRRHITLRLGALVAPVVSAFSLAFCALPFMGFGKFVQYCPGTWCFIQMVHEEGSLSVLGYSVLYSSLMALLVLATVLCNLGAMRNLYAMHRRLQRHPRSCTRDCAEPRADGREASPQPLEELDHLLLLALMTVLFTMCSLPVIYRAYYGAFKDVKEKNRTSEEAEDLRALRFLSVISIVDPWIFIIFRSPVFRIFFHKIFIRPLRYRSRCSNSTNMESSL

[2] = target: Prostaglandin E2 receptor EP2 subtype (Homo sapiens, UniProt P43116)
[3] = target: Prostaglandin E2 receptor EP4 subtype (Homo sapiens, UniProt P35408)
[4] = target: T2, Prostaglandin E2 receptor EP3 subtype (Homo sapiens, UniProt P43115)
T2 sequence (P43115 whole entry): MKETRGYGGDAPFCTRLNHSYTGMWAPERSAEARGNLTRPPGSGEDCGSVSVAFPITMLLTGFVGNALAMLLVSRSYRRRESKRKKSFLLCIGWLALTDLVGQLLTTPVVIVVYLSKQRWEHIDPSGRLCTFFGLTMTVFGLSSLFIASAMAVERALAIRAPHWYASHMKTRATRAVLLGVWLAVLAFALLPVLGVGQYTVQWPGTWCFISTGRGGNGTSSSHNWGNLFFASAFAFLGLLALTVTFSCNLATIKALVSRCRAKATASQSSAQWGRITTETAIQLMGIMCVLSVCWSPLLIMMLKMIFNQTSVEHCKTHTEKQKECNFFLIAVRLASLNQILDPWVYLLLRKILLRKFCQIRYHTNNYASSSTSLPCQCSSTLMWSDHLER

[5] = target: Solute carrier organic anion transporter family member 2A1 (Homo sapiens, UniProt Q92959)
Prostacyclin receptor = Prostacyclin receptor (Homo sapiens, UniProt P43119)
[6] = target: Prostaglandin F2-alpha receptor (Human, UniProt P43088)
[7] = target: T3, Prostaglandin E2 receptor EP1 subtype (Homo sapiens, UniProt P34995)
T3 sequence (P34995 whole entry): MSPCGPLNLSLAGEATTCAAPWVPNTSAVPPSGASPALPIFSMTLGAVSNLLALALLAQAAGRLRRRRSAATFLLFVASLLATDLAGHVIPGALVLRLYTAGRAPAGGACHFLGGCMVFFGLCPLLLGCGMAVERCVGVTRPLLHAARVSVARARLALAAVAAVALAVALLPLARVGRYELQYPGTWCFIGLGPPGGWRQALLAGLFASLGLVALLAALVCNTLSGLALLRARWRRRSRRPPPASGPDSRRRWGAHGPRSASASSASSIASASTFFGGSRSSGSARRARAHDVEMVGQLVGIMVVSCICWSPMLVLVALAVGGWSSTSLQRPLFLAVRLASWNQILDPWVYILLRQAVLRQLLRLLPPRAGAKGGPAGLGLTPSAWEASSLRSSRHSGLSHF

Sequence of Prostaglandin F2-alpha receptor (P43088 whole entry): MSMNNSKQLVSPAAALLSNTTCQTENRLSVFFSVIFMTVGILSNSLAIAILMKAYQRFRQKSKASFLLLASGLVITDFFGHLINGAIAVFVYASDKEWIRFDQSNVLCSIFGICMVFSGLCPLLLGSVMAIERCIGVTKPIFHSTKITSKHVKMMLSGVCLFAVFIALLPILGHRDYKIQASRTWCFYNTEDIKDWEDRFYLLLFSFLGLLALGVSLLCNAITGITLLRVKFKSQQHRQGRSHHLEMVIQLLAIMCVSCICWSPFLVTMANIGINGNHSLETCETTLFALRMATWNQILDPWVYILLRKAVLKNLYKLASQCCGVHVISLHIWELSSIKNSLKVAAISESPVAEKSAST
Sequence of Prostaglandin E2 receptor EP4 subtype (P35408 whole entry): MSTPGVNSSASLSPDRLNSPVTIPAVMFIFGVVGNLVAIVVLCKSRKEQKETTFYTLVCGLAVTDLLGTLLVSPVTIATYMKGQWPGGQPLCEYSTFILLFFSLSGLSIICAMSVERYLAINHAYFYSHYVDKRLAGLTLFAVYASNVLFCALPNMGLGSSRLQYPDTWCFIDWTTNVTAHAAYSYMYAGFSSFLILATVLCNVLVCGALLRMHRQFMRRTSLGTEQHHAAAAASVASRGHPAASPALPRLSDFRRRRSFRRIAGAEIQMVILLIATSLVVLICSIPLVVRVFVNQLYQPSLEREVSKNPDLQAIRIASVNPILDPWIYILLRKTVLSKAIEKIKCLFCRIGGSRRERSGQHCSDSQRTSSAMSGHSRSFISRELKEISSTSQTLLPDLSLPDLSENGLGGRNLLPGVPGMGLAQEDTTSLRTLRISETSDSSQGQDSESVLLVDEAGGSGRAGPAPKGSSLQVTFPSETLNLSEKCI
Sequence of Prostaglandin E2 receptor EP2 subtype (P43116 whole entry): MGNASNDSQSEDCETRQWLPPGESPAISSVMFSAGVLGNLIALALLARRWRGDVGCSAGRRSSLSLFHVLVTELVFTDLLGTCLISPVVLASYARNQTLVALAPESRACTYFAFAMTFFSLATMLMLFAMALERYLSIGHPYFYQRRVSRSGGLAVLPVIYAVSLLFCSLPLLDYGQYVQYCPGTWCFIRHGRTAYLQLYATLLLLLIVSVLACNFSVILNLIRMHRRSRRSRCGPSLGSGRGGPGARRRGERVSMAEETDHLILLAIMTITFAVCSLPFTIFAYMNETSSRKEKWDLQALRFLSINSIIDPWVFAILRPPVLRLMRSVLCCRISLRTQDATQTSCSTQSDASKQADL
Sequence of Prostacyclin receptor (P43119 whole entry): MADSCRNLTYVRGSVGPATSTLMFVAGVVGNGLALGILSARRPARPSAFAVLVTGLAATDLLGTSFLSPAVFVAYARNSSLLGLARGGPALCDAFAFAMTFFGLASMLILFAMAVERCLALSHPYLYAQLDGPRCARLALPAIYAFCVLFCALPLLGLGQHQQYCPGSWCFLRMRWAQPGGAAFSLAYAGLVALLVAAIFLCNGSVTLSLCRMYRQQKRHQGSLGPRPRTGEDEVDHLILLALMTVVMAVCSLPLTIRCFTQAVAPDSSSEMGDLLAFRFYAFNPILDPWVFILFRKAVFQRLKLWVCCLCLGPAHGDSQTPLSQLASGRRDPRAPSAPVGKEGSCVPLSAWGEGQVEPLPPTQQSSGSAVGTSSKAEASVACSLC

Row | SMILES | Ki [1] | Ki [2] | Ki [3] | Ki [4] | Ki [5] | Ki (Prostacyclin receptor) | Ki [6] | Ki [7]
1 | CCCC1([C@H](O)C/C=C/[C@H]2[C@H](O)CC(=O)[C@@H]2CCCCCCC(=O)OC)CCC1 [(R)-BUTAPROST] | > 10 µM | 91 nM | > 10000 nM | 1640 nM | > 10 µM | > 10 µM | > 10000 nM | 
2 | CC(C)OC(=O)CCC/C=C/C[C@@H]1[C@@H](CC[C@@H](O)CCc2ccccc2)[C@H](O)C[C@@H]1O [LATANOPROST (PHXA41)] | > 10 µM | > 10000 nM | > 10000 nM | > 10000 nM | > 10 µM | > 10 µM | 555 nM | 8540 nM
3 | O=C(O)CCCC=CCC1C(Cl)CC(O)C1C=CC(O)C1CCCCC1 (configuration not stated) [NSC_5311503] | 0.0003 µM | 6 nM | 41 nM | 402 nM | 1.12 µM | 2.14 µM | 1670 nM | 1.8 nM
4 | CCCC1([C@@H](O)C/C=C/C2[C@H](O)CC(=O)[C@@H]2CCCCCCC(=O)OC)CCC1 (some centres not stated) [Butaprost (Methyl Ester)] | > 10 µM | 3510 nM | > 10000 nM | > 10000 nM | > 10 µM | > 10 µM | > 10000 nM | > 10000 nM
5 | CS(=O)(=O)NC(=O)CCCC=CCC1C(=O)CC(O)C1C=CC(O)COc1ccccc1 (configuration not stated) [CAS_60325-46-4] | > 10 µM | > 10000 nM | 7740 nM | 0.35 nM | > 10 µM | > 10 µM | 198 nM | 107 nM
6 | CCC#CCC(C)C(O)C#CC1C(O)CC2CC(=CCOCC(=O)O)CC21 (configuration not stated) [CAS_94079-80-8] | 1.34 µM | 1340 nM | 44 nM | 255 nM | 1.34 µM | 0.017 µM | 1340 nM | 1340 nM
7 | O=C(O)CCCC=CCC1C(O)CC(O)C1C=CC(O)COc1cccc(C(F)(F)F)c1 (configuration not stated) [CAS_40666-16-8] | > 10 µM | > 10000 nM | > 10000 nM | 708 nM | > 10 µM | > 10 µM | 2.3 nM | > 10000 nM
8 | CCCCC(C)(O)C/C=C/[C@H]1[C@H](O)CC(=O)[C@@H]1CCCCCCC(=O)OC (some centres not stated) [CAS_59122-46-2] | > 10 µM | 34 nM | 23 nM | 7.9 nM | > 10 µM | > 10 µM | 9380 nM | > 10000 nM
9 | O=C(CCSCc1ccco1)NNC(=O)N1Cc2ccccc2Oc2ccc(Cl)cc21 [CAS_146032-79-3] | > 10 µM |  | > 10000 nM | 698 nM | 0.507 µM | > 10 µM | > 10000 nM | 
10 | O=C(CCCC=CCC1C(=O)CC(O)C1OCC(O)COc1ccccc1)Oc1ccc(NC(=O)c2ccccc2)cc1 (configuration not stated) [GR 63799] | > 10 µM | > 10000 nM | 149 nM | 4.77 nM | > 10 µM | > 10 µM | 1240 nM | 329 nM
11 | CC(C)Oc1ccc2c(=O)c3cc(C(=O)O)ccc3oc2c1 [CAS_33458-93-4] |  | 1150 nM | > 10000 nM | 1600 nM | 4.32 µM | > 10 µM | > 10000 nM | 1220 nM
12 | CCCCC[C@H](O)/C=C/[C@H]1[C@H](O)CC(=O)[C@@H]1C/C=C\CCCC(=O)O [DINOPROSTONE] | 0.307 µM |  |  |  | > 10 µM | > 10 µM | 119 nM | 9.1 nM
13 | O=C(O)CCCCCCC1C(=O)CCC1C=CC(O)COc1ccccc1 (configuration not stated) [CAS_80558-61-8] | > 10 µM | 988 nM | 10 nM | 0.14 nM | 0.343 µM | > 10 µM | 510 nM | 419 nM
